# Results as given in PubChem BioAssay (NCI).
#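 Cells were grown in 96-well plates and exposed to each compound for 48 hours at five concentrations; endpoints were interpolated linearly between bracketing concentrations, or set to the highest concentration if not reached. TGI marks complete inhibition of growth.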
# Test system: RPMI-8226 leukemia
# Experiment: DTP human tumour cell line panel, 48 h
row,Compound,TGI
1,C[n+]1cc(C(O)c2ccc3c(c2)OCO3)c2ccccc2c1 (stereo not given),98.8 µM
2,COc1ccc(/C(Cl)=C(\C=O)c2ccc(F)cc2)cc1OC,46.3 µM
3,COC(=O)N/N=C(\C)C(CN1CCCCC1)C(C1=C(O)c2ccccc2OC1)c1ccccc1 (stereo not given),> 100 µM
4,COC(=O)/C(C#N)=C1\CCC(O)N1 (stereo not given),> 100 µM

# Test system: RXF-631 renal
# Experiment: DTP human tumour cell line panel, 48 h
row,Compound,TGI
1,C[n+]1cc(C(O)c2ccc3c(c2)OCO3)c2ccccc2c1 (stereo not given),> 100 µM
2,COc1ccc(/C(Cl)=C(\C=O)c2ccc(F)cc2)cc1OC,49.2 µM

# Test system: SNB-78 CNS
# Experiment: DTP human tumour cell line panel, 48 h
row,Compound,TGI
1,C[n+]1cc(C(O)c2ccc3c(c2)OCO3)c2ccccc2c1 (stereo not given),> 100 µM
2,COc1ccc(/C(Cl)=C(\C=O)c2ccc(F)cc2)cc1OC,62.5 µM
3,COC(=O)N/N=C(\C)C(CN1CCCCC1)C(C1=C(O)c2ccccc2OC1)c1ccccc1 (stereo not given),> 100 µM
4,COC(=O)/C(C#N)=C1\CCC(O)N1 (stereo not given),> 100 µM

# Test system: SK-MEL-28 melanoma
# Experiment: DTP human tumour cell line panel, 48 h
row,Compound,TGI
1,COc1ccc(/C(Cl)=C(\C=O)c2ccc(F)cc2)cc1OC,68.4 µM
2,COC(=O)N/N=C(\C)C(CN1CCCCC1)C(C1=C(O)c2ccccc2OC1)c1ccccc1 (stereo not given),> 100 µM
3,COC(=O)/C(C#N)=C1\CCC(O)N1 (stereo not given),> 100 µM

# Test system: HT29 colon
# Experiment: DTP human tumour cell line panel, 48 h
row,Compound,TGI
1,C[n+]1cc(C(O)c2ccc3c(c2)OCO3)c2ccccc2c1 (stereo not given),> 100 µM
2,COc1ccc(/C(Cl)=C(\C=O)c2ccc(F)cc2)cc1OC,36.3 µM
3,COC(=O)N/N=C(\C)C(CN1CCCCC1)C(C1=C(O)c2ccccc2OC1)c1ccccc1 (stereo not given),> 100 µM
4,COC(=O)/C(C#N)=C1\CCC(O)N1 (stereo not given),> 100 µM

# Test system: UO-31 renal
# Experiment: DTP human tumour cell line panel, 48 h
row,Compound,TGI
1,C[n+]1cc(C(O)c2ccc3c(c2)OCO3)c2ccccc2c1 (stereo not given),92.5 µM
2,COc1ccc(/C(Cl)=C(\C=O)c2ccc(F)cc2)cc1OC,61.1 µM
3,COC(=O)N/N=C(\C)C(CN1CCCCC1)C(C1=C(O)c2ccccc2OC1)c1ccccc1 (stereo not given),> 100 µM
4,COC(=O)/C(C#N)=C1\CCC(O)N1 (stereo not given),> 100 µM

# Test system: IGROV1 ovarian
# Experiment: DTP human tumour cell line panel, 48 h
row,Compound,TGI
1,C[n+]1cc(C(O)c2ccc3c(c2)OCO3)c2ccccc2c1 (stereo not given),> 100 µM
2,COc1ccc(/C(Cl)=C(\C=O)c2ccc(F)cc2)cc1OC,> 100 µM
3,COC(=O)N/N=C(\C)C(CN1CCCCC1)C(C1=C(O)c2ccccc2OC1)c1ccccc1 (stereo not given),> 100 µM
4,COC(=O)/C(C#N)=C1\CCC(O)N1 (stereo not given),> 100 µM

# Test system: RXF 393 renal
# Experiment: DTP human tumour cell line panel, 48 h
row,Compound,TGI
1,C[n+]1cc(C(O)c2ccc3c(c2)OCO3)c2ccccc2c1 (stereo not given),62.5 µM
2,COC(=O)N/N=C(\C)C(CN1CCCCC1)C(C1=C(O)c2ccccc2OC1)c1ccccc1 (stereo not given),> 100 µM
3,COC(=O)/C(C#N)=C1\CCC(O)N1 (stereo not given),> 100 µM

# Test system: SR leukemia
# Experiment: DTP human tumour cell line panel, 48 h
row,Compound,TGI
1,COC(=O)N/N=C(\C)C(CN1CCCCC1)C(C1=C(O)c2ccccc2OC1)c1ccccc1 (stereo not given),> 100 µM
2,COC(=O)/C(C#N)=C1\CCC(O)N1 (stereo not given),> 100 µM

# Test system: SNB-19 CNS
# Experiment: DTP human tumour cell line panel, 48 h
row,Compound,TGI
1,C[n+]1cc(C(O)c2ccc3c(c2)OCO3)c2ccccc2c1 (stereo not given),> 100 µM
2,COc1ccc(/C(Cl)=C(\C=O)c2ccc(F)cc2)cc1OC,> 100 µM
3,COC(=O)N/N=C(\C)C(CN1CCCCC1)C(C1=C(O)c2ccccc2OC1)c1ccccc1 (stereo not given),> 100 µM
4,COC(=O)/C(C#N)=C1\CCC(O)N1 (stereo not given),> 100 µM

# Test system: OVCAR-3 ovarian
# Experiment: DTP human tumour cell line panel, 48 h
row,Compound,TGI
1,C[n+]1cc(C(O)c2ccc3c(c2)OCO3)c2ccccc2c1 (stereo not given),> 100 µM
2,COc1ccc(/C(Cl)=C(\C=O)c2ccc(F)cc2)cc1OC,64.6 µM
3,COC(=O)N/N=C(\C)C(CN1CCCCC1)C(C1=C(O)c2ccccc2OC1)c1ccccc1 (stereo not given),> 100 µM
4,COC(=O)/C(C#N)=C1\CCC(O)N1 (stereo not given),> 100 µM

# Test system: MALME-3M melanoma
# Experiment: DTP human tumour cell line panel, 48 h
row,Compound,TGI
1,C[n+]1cc(C(O)c2ccc3c(c2)OCO3)c2ccccc2c1 (stereo not given),65 µM
2,COc1ccc(/C(Cl)=C(\C=O)c2ccc(F)cc2)cc1OC,72 µM
3,COC(=O)N/N=C(\C)C(CN1CCCCC1)C(C1=C(O)c2ccccc2OC1)c1ccccc1 (stereo not given),> 100 µM
4,COC(=O)/C(C#N)=C1\CCC(O)N1 (stereo not given),> 100 µM

# Test system: SN12C renal
# Experiment: DTP human tumour cell line panel, 48 h
row,Compound,TGI
1,C[n+]1cc(C(O)c2ccc3c(c2)OCO3)c2ccccc2c1 (stereo not given),> 100 µM
2,COc1ccc(/C(Cl)=C(\C=O)c2ccc(F)cc2)cc1OC,77.1 µM
3,COC(=O)N/N=C(\C)C(CN1CCCCC1)C(C1=C(O)c2ccccc2OC1)c1ccccc1 (stereo not given),> 100 µM
4,COC(=O)/C(C#N)=C1\CCC(O)N1 (stereo not given),> 100 µM

# Test system: UACC-257 melanoma
# Experiment: DTP human tumour cell line panel, 48 h
row,Compound,TGI
1,C[n+]1cc(C(O)c2ccc3c(c2)OCO3)c2ccccc2c1 (stereo not given),66.5 µM
2,COC(=O)N/N=C(\C)C(CN1CCCCC1)C(C1=C(O)c2ccccc2OC1)c1ccccc1 (stereo not given),> 100 µM
3,COC(=O)/C(C#N)=C1\CCC(O)N1 (stereo not given),> 100 µM

# Test system: OVCAR-5 ovarian
# Experiment: DTP human tumour cell line panel, 48 h
row,Compound,TGI
1,C[n+]1cc(C(O)c2ccc3c(c2)OCO3)c2ccccc2c1 (stereo not given),> 100 µM
2,COC(=O)N/N=C(\C)C(CN1CCCCC1)C(C1=C(O)c2ccccc2OC1)c1ccccc1 (stereo not given),> 100 µM
3,COC(=O)/C(C#N)=C1\CCC(O)N1 (stereo not given),> 100 µM

# Test system: CAKI-1 renal
# Experiment: DTP human tumour cell line panel, 48 h
row,Compound,TGI
1,C[n+]1cc(C(O)c2ccc3c(c2)OCO3)c2ccccc2c1 (stereo not given),69.4 µM
2,COc1ccc(/C(Cl)=C(\C=O)c2ccc(F)cc2)cc1OC,63.2 µM
3,COC(=O)N/N=C(\C)C(CN1CCCCC1)C(C1=C(O)c2ccccc2OC1)c1ccccc1 (stereo not given),> 100 µM
4,COC(=O)/C(C#N)=C1\CCC(O)N1 (stereo not given),> 100 µM

# Test system: OVCAR-8 ovarian
# Experiment: DTP human tumour cell line panel, 48 h
row,Compound,TGI
1,C[n+]1cc(C(O)c2ccc3c(c2)OCO3)c2ccccc2c1 (stereo not given),> 100 µM
2,COc1ccc(/C(Cl)=C(\C=O)c2ccc(F)cc2)cc1OC,> 100 µM
3,COC(=O)N/N=C(\C)C(CN1CCCCC1)C(C1=C(O)c2ccccc2OC1)c1ccccc1 (stereo not given),> 100 µM
4,COC(=O)/C(C#N)=C1\CCC(O)N1 (stereo not given),> 100 µM

# Test system: NCI-H226 lung
# Experiment: DTP human tumour cell line panel, 48 h
row,Compound,TGI
1,C[n+]1cc(C(O)c2ccc3c(c2)OCO3)c2ccccc2c1 (stereo not given),> 100 µM
2,COc1ccc(/C(Cl)=C(\C=O)c2ccc(F)cc2)cc1OC,47.2 µM
3,COC(=O)N/N=C(\C)C(CN1CCCCC1)C(C1=C(O)c2ccccc2OC1)c1ccccc1 (stereo not given),> 100 µM
4,COC(=O)/C(C#N)=C1\CCC(O)N1 (stereo not given),> 100 µM

# Test system: SF-295 CNS
# Experiment: DTP human tumour cell line panel, 48 h
row,Compound,TGI
1,C[n+]1cc(C(O)c2ccc3c(c2)OCO3)c2ccccc2c1 (stereo not given),> 100 µM
2,COc1ccc(/C(Cl)=C(\C=O)c2ccc(F)cc2)cc1OC,63.2 µM
3,COC(=O)N/N=C(\C)C(CN1CCCCC1)C(C1=C(O)c2ccccc2OC1)c1ccccc1 (stereo not given),> 100 µM
4,COC(=O)/C(C#N)=C1\CCC(O)N1 (stereo not given),> 100 µM

# Test system: A498 renal
# Experiment: DTP human tumour cell line panel, 48 h
row,Compound,TGI
1,C[n+]1cc(C(O)c2ccc3c(c2)OCO3)c2ccccc2c1 (stereo not given),> 100 µM
2,COc1ccc(/C(Cl)=C(\C=O)c2ccc(F)cc2)cc1OC,54.8 µM
3,COC(=O)N/N=C(\C)C(CN1CCCCC1)C(C1=C(O)c2ccccc2OC1)c1ccccc1 (stereo not given),> 100 µM

# Test system: M19-MEL melanoma
# Experiment: DTP human tumour cell line panel, 48 h
row,Compound,TGI
1,C[n+]1cc(C(O)c2ccc3c(c2)OCO3)c2ccccc2c1 (stereo not given),> 100 µM
2,COc1ccc(/C(Cl)=C(\C=O)c2ccc(F)cc2)cc1OC,66.1 µM
3,COC(=O)N/N=C(\C)C(CN1CCCCC1)C(C1=C(O)c2ccccc2OC1)c1ccccc1 (stereo not given),> 100 µM
4,COC(=O)/C(C#N)=C1\CCC(O)N1 (stereo not given),> 100 µM

# Test system: SK-MEL-5 melanoma
# Experiment: DTP human tumour cell line panel, 48 h
row,Compound,TGI
1,C[n+]1cc(C(O)c2ccc3c(c2)OCO3)c2ccccc2c1 (stereo not given),44.2 µM
2,COc1ccc(/C(Cl)=C(\C=O)c2ccc(F)cc2)cc1OC,37.7 µM
3,COC(=O)N/N=C(\C)C(CN1CCCCC1)C(C1=C(O)c2ccccc2OC1)c1ccccc1 (stereo not given),> 100 µM

# Test system: ACHN renal
# Experiment: DTP human tumour cell line panel, 48 h
row,Compound,TGI
1,C[n+]1cc(C(O)c2ccc3c(c2)OCO3)c2ccccc2c1 (stereo not given),> 100 µM
2,COc1ccc(/C(Cl)=C(\C=O)c2ccc(F)cc2)cc1OC,58.6 µM
3,COC(=O)N/N=C(\C)C(CN1CCCCC1)C(C1=C(O)c2ccccc2OC1)c1ccccc1 (stereo not given),> 100 µM
4,COC(=O)/C(C#N)=C1\CCC(O)N1 (stereo not given),> 100 µM

# Test system: DMS 114 small cell lung
# Experiment: DTP human tumour cell line panel, 48 h
row,Compound,TGI
1,C[n+]1cc(C(O)c2ccc3c(c2)OCO3)c2ccccc2c1 (stereo not given),83.5 µM
2,COc1ccc(/C(Cl)=C(\C=O)c2ccc(F)cc2)cc1OC,46.2 µM
3,COC(=O)N/N=C(\C)C(CN1CCCCC1)C(C1=C(O)c2ccccc2OC1)c1ccccc1 (stereo not given),> 100 µM
4,COC(=O)/C(C#N)=C1\CCC(O)N1 (stereo not given),> 100 µM

# Test system: HCT-15 colon
# Experiment: DTP human tumour cell line panel, 48 h
row,Compound,TGI
1,C[n+]1cc(C(O)c2ccc3c(c2)OCO3)c2ccccc2c1 (stereo not given),> 100 µM
2,COc1ccc(/C(Cl)=C(\C=O)c2ccc(F)cc2)cc1OC,83.3 µM
3,COC(=O)N/N=C(\C)C(CN1CCCCC1)C(C1=C(O)c2ccccc2OC1)c1ccccc1 (stereo not given),> 100 µM

# Test system: SK-MEL-2 melanoma
# Experiment: DTP human tumour cell line panel, 48 h
row,Compound,TGI
1,C[n+]1cc(C(O)c2ccc3c(c2)OCO3)c2ccccc2c1 (stereo not given),96.1 µM
2,COc1ccc(/C(Cl)=C(\C=O)c2ccc(F)cc2)cc1OC,39.4 µM
3,COC(=O)N/N=C(\C)C(CN1CCCCC1)C(C1=C(O)c2ccccc2OC1)c1ccccc1 (stereo not given),> 100 µM
4,COC(=O)/C(C#N)=C1\CCC(O)N1 (stereo not given),> 100 µM

# Test system: HOP-92 NSCLC
# Experiment: DTP human tumour cell line panel, 48 h
row,Compound,TGI
1,COc1ccc(/C(Cl)=C(\C=O)c2ccc(F)cc2)cc1OC,29.3 µM

# Test system: LXFL 529 NSCLC
# Experiment: DTP human tumour cell line panel, 48 h
row,Compound,TGI
1,COc1ccc(/C(Cl)=C(\C=O)c2ccc(F)cc2)cc1OC,76.7 µM
2,COC(=O)N/N=C(\C)C(CN1CCCCC1)C(C1=C(O)c2ccccc2OC1)c1ccccc1 (stereo not given),> 100 µM
3,COC(=O)/C(C#N)=C1\CCC(O)N1 (stereo not given),> 100 µM

# Test system: COLO 205 colon
# Experiment: DTP human tumour cell line panel, 48 h
row,Compound,TGI
1,C[n+]1cc(C(O)c2ccc3c(c2)OCO3)c2ccccc2c1 (stereo not given),> 100 µM
2,COc1ccc(/C(Cl)=C(\C=O)c2ccc(F)cc2)cc1OC,36.8 µM
3,COC(=O)N/N=C(\C)C(CN1CCCCC1)C(C1=C(O)c2ccccc2OC1)c1ccccc1 (stereo not given),> 100 µM
4,COC(=O)/C(C#N)=C1\CCC(O)N1 (stereo not given),> 100 µM

# Test system: UACC-62 melanoma
# Experiment: DTP human tumour cell line panel, 48 h
row,Compound,TGI
1,C[n+]1cc(C(O)c2ccc3c(c2)OCO3)c2ccccc2c1 (stereo not given),> 100 µM
2,COc1ccc(/C(Cl)=C(\C=O)c2ccc(F)cc2)cc1OC,61.6 µM
3,COC(=O)N/N=C(\C)C(CN1CCCCC1)C(C1=C(O)c2ccccc2OC1)c1ccccc1 (stereo not given),> 100 µM
4,COC(=O)/C(C#N)=C1\CCC(O)N1 (stereo not given),> 100 µM
